{
  "source": "patent EP4714462A1",
  "about": "“COMPOSITION COMPRISING GV1001 FOR PREVENTING OR TREATING MACULAR DEGENERATION” (Gemvax & Kael Co., Ltd., priority 2023, dated 2024)",
  "key": {"[1]": {"system": "retinal pigment epithelial cell line ARPE-19", "assay": "Epithelial-mesenchymal transition (cadherin 1 / vimentin, confocal microscopy) in H2O2-treated retinal pigment epithelial cells", "assay_type": "cell-based", "details": "ARPE-19, H2O2 50 µM; metformin 1 mM (positive control)", "description": "(§1) Reactive oxygen species were generated by treating retinal pigment epithelial cell line ARPE-19 with hydrogen peroxide (H2O2)."}, "[2]": {"system": "mouse model of age-related macular degeneration", "assay": "Short-term administration in NaIO3 mouse model of age-related macular degeneration (phalloidin-stained RPE/choroid flat mount)", "assay_type": "in vivo, C57BL/6 mice", "details": "NaIO3 20 mg/kg IV; metformin 4 mg/mL in drinking water for 7 days before NaIO3", "description": "Mice injected with sodium iodate (NaIO3) are used as a representative model of age-related macular degeneration. A mouse model of age-related macular degeneration was established by injecting NaIO3 into C57BL/6 mice, thereby inducing oxidative stress specific to retinal pigment epithelial cells and causing damage."}, "[3]": {"system": "retinal pigment epithelial cell line ARPE-19", "assay": "Reduction of reactive oxygen species (DCF-DA fluorescence microscopy) in H2O2-treated retinal pigment epithelial cells", "assay_type": "cell-based", "details": "ARPE-19, H2O2 50 µM; metformin 1 mM (positive control)", "description": "as §1"}},
  "data": [
    {"compound": "CN(C)C(=N)N=C(N)N", "note": "[metformin]", "values": [
      {"measurement": "epithelial-mesenchymal transition", "setting": "[1]", "value": "reduced"},
      {"measurement": "tight junction structure", "setting": "[2]", "value": "maintained"},
      {"measurement": "DCF-DA fluorescence intensity", "setting": "[3]", "value": "decreased"}
    ]}
  ]
}
